We go through five molecules from US10053487B2, “Neuroactive 19-alkoxy-17(20)-Z-vinylcyano-substituted steroids, prodrugs thereof, and methods of treatment using same” (priority 2012, dated 2018).

Where two headings read alike, the source gives them in different places.

Data set [1] addresses T1, GABAA receptors (picrotoxin binding site).
T1 construct: other: duplicate experiments performed in triplicate; ± SEM; other: Hill coefficient
Briefly: [35S]-TBPS displacement (non-competitive displacement from the picrotoxin binding site). Particulars: duplicate experiments performed in triplicate; ± SEM; read-out: Inhibition of [35S]-TBPS binding, IC50. Here is the method: (§1) The IC50 values for the compounds of Scheme 1 (i.e., Compounds 1 and 2) as non-competitive displacers of [^35S]-TBPS from the picrotoxin binding site on GABAA receptors are reported in Table 1.
(§2) Results presented are from duplicate experiments performed in triplicate. Error limits are calculated as standard error of the mean. Methods used are known in the art (see, e.g., E. Stastna, et al., Neurosteroid Analogues. 16. A New Explanation for the Lack of Anesthetic Effects in Δ^16-Alphaxalone and Identification of a Δ^17(20) Analogue with Potent Anesthetic Activity, J. Med. Chem., 54(11), pp. 3926-34 (2011)).

Data set [2] deals with T2, rat α1β2γ2L type GABAA receptors expressed in Xenopus laevis oocytes (Rattus norvegicus, UniProt P62813+P63138).
T2 construct: expressed in transfected cells; host or cells: Xenopus laevis oocytes
T2 sequence (P62813 28-455): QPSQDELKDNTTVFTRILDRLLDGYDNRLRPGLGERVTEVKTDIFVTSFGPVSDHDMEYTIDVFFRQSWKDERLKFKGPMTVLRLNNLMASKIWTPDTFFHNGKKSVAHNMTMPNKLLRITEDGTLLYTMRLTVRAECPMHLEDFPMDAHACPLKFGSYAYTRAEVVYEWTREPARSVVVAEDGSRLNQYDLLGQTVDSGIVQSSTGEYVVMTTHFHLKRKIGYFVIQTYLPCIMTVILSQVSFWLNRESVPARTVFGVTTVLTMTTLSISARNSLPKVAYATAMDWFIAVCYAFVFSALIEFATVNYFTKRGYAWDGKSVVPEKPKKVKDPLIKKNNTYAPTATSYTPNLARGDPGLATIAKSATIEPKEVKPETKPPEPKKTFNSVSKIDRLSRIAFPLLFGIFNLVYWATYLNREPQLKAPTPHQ
T2 sequence (P63138 26-474): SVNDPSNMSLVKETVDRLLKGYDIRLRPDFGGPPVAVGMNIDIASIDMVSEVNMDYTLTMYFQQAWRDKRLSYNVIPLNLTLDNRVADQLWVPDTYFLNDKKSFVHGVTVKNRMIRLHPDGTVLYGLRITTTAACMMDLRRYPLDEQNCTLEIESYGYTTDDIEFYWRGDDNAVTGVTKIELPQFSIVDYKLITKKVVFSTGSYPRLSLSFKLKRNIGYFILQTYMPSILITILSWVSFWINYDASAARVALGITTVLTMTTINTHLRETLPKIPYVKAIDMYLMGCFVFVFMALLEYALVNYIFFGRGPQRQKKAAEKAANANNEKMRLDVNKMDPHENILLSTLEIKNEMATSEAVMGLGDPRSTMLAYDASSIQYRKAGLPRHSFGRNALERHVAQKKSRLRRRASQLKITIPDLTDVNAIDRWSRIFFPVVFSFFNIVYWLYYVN
T2 sequence (P18508 other isoform, or with tags, fused parts or gaps INS375LLRMFSFK, further chain): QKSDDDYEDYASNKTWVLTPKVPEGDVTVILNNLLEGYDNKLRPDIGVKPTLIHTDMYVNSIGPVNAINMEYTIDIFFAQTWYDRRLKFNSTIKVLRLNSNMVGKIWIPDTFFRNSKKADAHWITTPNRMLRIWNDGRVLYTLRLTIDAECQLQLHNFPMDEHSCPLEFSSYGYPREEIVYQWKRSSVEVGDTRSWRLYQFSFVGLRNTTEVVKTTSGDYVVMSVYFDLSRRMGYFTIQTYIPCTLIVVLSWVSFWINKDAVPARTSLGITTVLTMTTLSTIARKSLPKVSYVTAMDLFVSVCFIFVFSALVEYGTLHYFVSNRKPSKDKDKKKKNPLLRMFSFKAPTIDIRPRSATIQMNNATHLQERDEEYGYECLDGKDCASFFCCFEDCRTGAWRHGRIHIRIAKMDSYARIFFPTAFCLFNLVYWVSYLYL
Briefly: Oocyte electrophysiology: potentiation of chloride currents mediated by 2 μM GABA, and direct gating. It is filed as cell-based. The note with it: ± SEM, N≥4; for Ratio of currents measured in the presence/absence of added compound, 0.1 μM: 0.1 μM compound; for Ratio of currents measured in the presence/absence of added compound, 0.1 μM / Ratio of currents measured in the presence/absence of added compound, 1 μM / Ratio of currents measured in the presence/absence of added compound, 10 μM: 2 μM GABA; for Ratio of currents measured in the presence/absence of added compound, 1 μM: 1 μM compound; for Ratio of currents measured in the presence/absence of added compound, 10 μM: 10 μM compound; for (gating) 10 μM: ratio of compound only current/2 μM GABA current: direct current gated by 10 μM compound in the absence of GABA. The protocol:
The compounds of the present disclosure were evaluated for the ability to potentiate chloride currents mediated by 2 μM GABA at rat α1β2γ2L type GABAA receptors expressed in Xenopus laevis oocytes and the results are shown in Table 2.
The potentiation of 2 μM GABA-mediated chloride currents at rat α1β2γ2-type GABAA receptors expressed in frog oocytes by different concentrations of Compound 1, is illustrated by the curves in FIG. 2, as well. ^aThe GABA concentration used for the control response was 2 μM. Each compound was evaluated on at least four different oocytes at the concentrations indicated, and the results reported are the ratio of currents measured in the presence/absence of added compound. Gating represents direct current gated by 10 μM compound in the absence of GABA, and this current is reported as the ratio of compound only current/2 μM GABA current. Error limits are calculated as standard error of the mean (N≥4). Methods used are known in the art (see, e.g., E. Stastna, et al., Neurosteroid Analogues. 16. A New Explanation for the Lack of Anesthetic Effects in Δ^16-Alphaxalone and Identification of a Δ^17(20) Analogue with Potent Anesthetic Activity, J. Med. Chem., 54(11), pp. 3926-34 (2011)).

Another data set relates to tadpoles. Briefly: Tadpole loss of righting reflex (LRR) and loss of swimming reflex (LSR). Particulars: ± SEM. It is filed as in vivo. The text has this:
Table 3 discloses the anesthetic effects of the compounds of the present disclosure. In particular, the anesthetic effect of the compounds of the present disclosure on Loss of Righting Reflex (LRR) and Loss of Swimming Reflex (LSR).
A quantal dose-response curve for loss of righting reflect (LRR) and loss of swimming reflex (LSR) caused by Compound 1 in tadpoles, is illustrated in FIG. 3, as well. ^aMethods used are known in the art (see, e.g., E. Stastna, et al., Neurosteroid Analogues. 16. A New Explanation for the Lack of Anesthetic Effects in Δ^16-Alphaxalone and Identification of a Δ^17(20) Analogue with Potent Anesthetic Activity, J. Med. Chem., 54(11), pp. 3926-34 (2011)). Error limits are calculated as standard error of the mean (N=10 or more animals at each of five or more different concentrations).

In data set [3] the test system is GABAA receptors (picrotoxin binding site). Briefly: [35S]-TBPS displacement (non-competitive displacement from the picrotoxin binding site). Here is the method: as §1, §2
A further data set deals with GABAA receptors. Particulars: background statement; cited from earlier work.
The mark [4] stands for this setting: loss of righting reflex, read-out: Tadpole LRR EC50.
Setting [5] is: loss of swimming reflex, read-out: Tadpole LSR EC50.
Where [6] appears, read: [35S]-TBPS displacement, hydrogenated Δ17(20) double bond.

On to `COC[C@]12CC[C@@H](O)C[C@@H]1CC[C@@H]1[C@@H]2CC[C@]2(C)/C(=C\C#N)CC[C@@H]12` [Compound 1, [3α,5α,17(20)Z]-19-methoxypregn-17(20)-ene-21-nitrile], for which the melting point (commonly the temperature of the solid-liquid transition) was 166 to 168 °C. Moreover, the IC50 (as a rule, the midpoint of a concentration-inhibition curve) in data set [1] stood at 42 ± 4 nM. Further, in data set [2], the “Ratio of currents measured in the presence/absence of added compound, 0.1 μM” value is recorded as 2.88 ± 0.90; the “Ratio of currents measured in the presence/absence of added compound, 1 μM” value was determined as 15.27 ± 2.58; the “Ratio of currents measured in the presence/absence of added compound, 10 μM” value is 45.80 ± 15.79; the “(gating) 10 μM: ratio of compound only current/2 μM GABA current” value was found to be 0.19 ± 0.08. Moreover, the concentration giving a half-maximal response (EC50) (in general, the midpoint of the concentration-response curve) in the data set with tadpoles (setting [4]) is 159 ± 25 nM. Also, the EC50 in the data set on tadpoles (setting [5]) amounted to 970 ± 65 nM.
On to `COC[C@]12CC[C@@H](O)C[C@@H]1CC[C@@H]1[C@@H]2CC[C@]2(C)/C(=C/C#N)CC[C@@H]12` [Compound 2, [3α,5α,17(20)E]-19-methoxypregn-17(20)-ene-21-nitrile], for which the melting point was 185 to 188 °C. The IC50 in data set [1] was 657 ± 114 nM. Also, in data set [2], the “Ratio of currents measured in the presence/absence of added compound, 0.1 μM” value came to 0.69 ± 0.11; the “Ratio of currents measured in the presence/absence of added compound, 1 μM” value is 1.26 ± 0.22; the “Ratio of currents measured in the presence/absence of added compound, 10 μM” value stood at 2.97 ± 0.33; the “(gating) 10 μM: ratio of compound only current/2 μM GABA current” value turned out to be 0.31 ± 0.25. In the data set on tadpoles (setting [4]), the concentration giving a half-maximal response (EC50) amounted to 2780 ± 560 nM. Besides, in the data set on tadpoles (setting [5]), the EC50 is approximately 10000 nM.
As for `C[C@]12CC[C@@H](O)C[C@@H]1CC[C@H]1[C@@H]3CC[C@H](CC#N)[C@@]3(C)CC(=O)[C@@H]12` [Compound 5c], in data set [3] (setting [6]), the “Fold decrease of IC50 value relative to Compound 6b” value is “about twofold” and the “Fold increase of IC50 value relative to Compound 6a” value is on record as “about eight-fold”.
In the case of `C[C@]12CC[C@@H](O)C[C@@H]1CC[C@@H]1[C@@H]2C(=O)C[C@]2(C)/C(=C\C#N)CC[C@@H]12` [Compound 6a], the “Fold more potent at displacing [35S]-TBPS than the E isomer” value in data set [3] (Z isomer versus E isomer (Compound 6a versus Compound 6b)) is listed as “about 17 fold”.
For `CC(=O)C1=CC[C@H]2[C@@H]3CC[C@H]4C[C@H](O)CC[C@]4(C)[C@H]3C(=O)C[C@]12C` [Δ^16-alphaxalone], the “Allosteric activity at GABAA receptors, in contrast to alphaxalone” value with GABAA receptors is “greatly diminished allosteric activity”.
